# Source: patent publication US20040076954A1, “Genomics-driven high speed cellular assays, development thereof, and collections of cellular reporters” (IRM, LLC, priority 2001, published 2004)
# Assays:
# [1] = tested on: Mouse macrophage cell line RAW264.7; experiment: Antibiotic selection of transfected RAW264.7 cells; type: cell-based; details: transfected RAW cells
# Procedure: Mouse macrophage cell line RAW264.7 from the ATCC was used for reporter gene assays. RAW cells were cultured at 37° C. in Dulbecco's modified Eagle medium (GibcoBRL), supplemented with 10% defined fetal bovine serum (low endotoxin, Hyclone). Transient transfection was carried out in 6 well plates with SuperFect Transfection Reagent (Qiagen) using the protocol provided by the supplier. In brief, 6×10^5 cells were seeded in each well the day before transfection. 2 μg of DNA and 10 μl of SuperFect reagent were added to the cells. For the purposed of selecting stable cell lines, vectors containing antibiotic resistant genes (e.g. hygromycin, puromycin and blasticidin) were also included at a ratio of 1:5 or 1:10 to the reporter DNA. 48 hours post-transfection, the cells were transferred into 10 cm dishes. An antibiotic was added at 150 μg/ml of hygromycin, 400 ng/ml of puromycin, or 3 μg/ml of blasticidin. […] Two weeks later, the cells which sustained antibiotic selection were seeded into three 96 well plates at the density of 0.3 cell/well. After 3-4 weeks, 44 single clones each of MALH (hygromycin) and MALB (blasticidin) were harvested and assayed. Pools of MALH or MALB were also combined for population experiments. The total selection time was 5-6 weeks.
# [2] = tested on: HepG2 (human hepatoma cells); experiment: Gene chip (Affymetrix) expression profiling of HGF-treated hepatocyte cells; type: cell-based; details: HepG2, 75 ng/ml HGF 4 hours vs untreated
# Procedure: A method assessing the responsiveness of gene transcript to Hepatocyte Growth Factor (HGF) in a human hepatocyte cell line is exemplified.
# Human hepatocyte cells, HepG2 (human hepatoma cells ATCC accession no. HB-8065), were plated at 8×10^5 cells per ml in a 4 separate wells of a 6-well plate and incubated overnight at 37° C., 5% CO2. Eighteen hours after plating, 2 wells of cells were treated with 75 ng/ml of HGF continuously for 4 hours, while two samples were left untreated. Cells were harvested by 1×PBS wash, scraped into a 15 ml conical tube and placed on ice. Samples were centrifuged to pellet the cells, flash frozen on dry ice and submitted for RNA extraction.
# The following protocol was used to isolate total RNA from the 2 untreated and 2 treated samples:
# The following protocol was used to generate cDNA then cRNA from the total RNA preparation:
# The following protocol was used to hybridize the cRNA to gene chips (Affymetrix):
# Following the hybridization, the chips are analyzed for relative fluorescence intensity corresponding to each set of oligonucleotides. The location of each oligonucleotide and the gene it represents on the array is known. Using, for example, Microsoft Excel, a list of each oligonucleotide, corresponding gene and relative intensity are recorded and saved. The data sets for treated and untreated are compared side-by-side for average-fold change. The resulting list is parsed by magnitude fold-change and can be represented as text (Excel), or visually (Gene-Spring or Tree-view).
# The following details the results of a chip study. […] The list begins with the greatest fold induction (FC) and ends with greatest fold repression.
compound,measurement,setting,value
CN(CC[C@H](N)CC(=O)N[C@H]1C=C[C@H](n2ccc(N)nc2=O)O[C@@H]1C(=O)O)C(=N)N [blasticidin],cell death within 3 days of antibiotic selection,[1]; 3 μg/ml blasticidin,Massive cell death
COc1ccc(C[C@H](N)C(=O)N[C@H]2[C@@H](O)[C@H](n3cnc4c(N(C)C)ncnc43)O[C@@H]2CO)cc1 [puromycin],cell death within 3 days of antibiotic selection,[1]; 400 ng/ml puromycin,not
Hepatocyte Growth Factor [HGF],FC (fold change) 277_at myeloid cell differentiation protein (MCL1) (L08246),[2],6 fold
same,FC (fold change) 529_at dual-specificity protein phosphatase (U15932),[2],5 fold
same,"FC (fold change) 660_at mitochondrial 1,25-dihydroxyvitamin D3 24-hydroxylase (L13286)",[2],9 fold
same,FC (fold change) 1237_at IEX-1 radiation-inducible immediate-early gene (S81914),[2],8 fold
same,FC (fold change) 1379_at HUMECK protein tyrosine kinase (M59371),[2],8 fold
same,FC (fold change) 1890_at TGF-beta superfamily protein (AB000584),[2],5 fold
same,FC (fold change) 2057_g_at fibroblast growth factor (FGF) receptor-1 (M34641),[2],5 fold
same,FC (fold change) 31888_s_at IPL (AF001294),[2],14 fold
same,FC (fold change) 32786_at jun-B (X51345),[2],7 fold
same,FC (fold change) 33146_at myeloid cell differentiation protein (MCL1) (L08246),[2],6 fold
same,FC (fold change) 34476_r_at epiregulin (D30783),[2],15 fold
same,FC (fold change) 34898_at amphiregulin (AR) (M30704),[2],13 fold
same,FC (fold change) 35372_r_at beta-thromboglobulin-like protein (M17017),[2],8 fold
same,FC (fold change) 35454_at KIAA0450 protein (AB007919),[2],5 fold
same,FC (fold change) 35597_at C8FW phosphoprotein (AJ000480),[2],7 fold
same,FC (fold change) 36097_at transcription factor ETR101 (M62831),[2],5 fold
same,FC (fold change) 36324_at A2b adenosine receptor (X68487),[2],6 fold
same,FC (fold change) 36344_at proteinase-activated receptor-2 (U34038),[2],7 fold
same,FC (fold change) 36345_g_at proteinase-activated receptor-2 (U34038),[2],8 fold
same,FC (fold change) 36543_at placental tissue factor (J02931),[2],7 fold
same,FC (fold change) 36711_at novel MAFF LIKE protein (AL021977),[2],8 fold
same,FC (fold change) 36742_at putative zinc finger protein (ZNFB7) (U34249),[2],5 fold
same,FC (fold change) 37680_at gravin (U81607),[2],7 fold
same,FC (fold change) 38125_at beta-migrating plasminogen activator inhibitor I (M14083),[2],13 fold
same,"FC (fold change) 38247_at proteinase activated receptor-2 mRNA, 3UTR (U67058)",[2],9 fold
same,FC (fold change) 38772_at CYR61 (Y11307),[2],9 fold
same,FC (fold change) 39105_at vasodilator-stimulated phosphoprotein (VASP) (Z46389),[2],11 fold
same,FC (fold change) 39248_at za55a01.s1 cDNA (N74607),[2],6 fold
same,FC (fold change) 40385_at chemokine exodus-1 mRNA (U64197),[2],19 fold
same,FC (fold change) 40614_at SHB (X75342),[2],8 fold
same,FC (fold change) 41193_at DUSP6 (AB013382),[2],6 fold
same,FC (fold change) 41524_at inositol polyphosphate 1-phosphatase (L08488),[2],6 fold
same,FC (fold change) 1974_s_at p53 cellular tumor antigen (X02469),[2]; negative = repression,−5 fold
same,FC (fold change) 2089_s_at H06628 similar to ERBB-3 receptor protein-tyrosine kinase precursor,[2]; negative = repression,−5 fold
same,FC (fold change) 32787_at epidermal growth factor receptor (HER3) (M34309),[2]; negative = repression,−8 fold
same,FC (fold change) 36048_at HRIHFB2436 (AB015342),[2]; negative = repression,−5 fold
same,FC (fold change) 37487_at KIAA1093 protein (AB029016),[2]; negative = repression,−5 fold
